Data taken from PubChem BioAssay AID256 (DTP/NCI, 2004).
Where “and” joins values, the source holds several entries; their conditions need not be identical. Equal entries are not always repeated. Inconclusive results and toxic doses are left out. How the source made its calls: active means survival T/C of 150% or more; inactive means T/C below 125% in these data.

Test system: CD2F1 mice, L1210 leukemia ip, survival T/C
Assay: NCI In Vivo Anticancer Drug Screen. Data for tumor model L1210 Leukemia (intraperitoneal) in CD2F1 (CDF1) mice
Details: higher = longer survival
Outline: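 Implant tumor; dose compound or vehicle; measure endpoint in both groups; report treated divided by control.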

[1] = endpoint: mean survival time, dose: 100.0 mg/kg/injection, schedule: Q04DX003 (ip), vehicle: Klucel (hydroxypropylcellulose) (HPC)
[2] = endpoint: mean survival time, dose: 200.0 mg/kg/injection, schedule: Q04DX003 (ip), vehicle: Klucel (hydroxypropylcellulose) (HPC)
[3] = endpoint: mean survival time, dose: 400.0 mg/kg/injection, schedule: Q04DX003 (ip), vehicle: Klucel (hydroxypropylcellulose) (HPC)
[4] = endpoint: mean survival time, dose: 100.0 mg/kg/injection, schedule: Q01DX009 (ip), vehicle: saline with Tween-80
[5] = endpoint: mean survival time, dose: 100.0 mg/kg/injection, schedule: Q04DX003 (ip), vehicle: saline with Tween-80
[6] = endpoint: mean survival time, dose: 200.0 mg/kg/injection, schedule: Q01DX009 (ip), vehicle: saline with Tween-80
[7] = endpoint: mean survival time, dose: 200.0 mg/kg/injection, schedule: Q04DX003 (ip), vehicle: saline with Tween-80
[8] = endpoint: mean survival time, dose: 400.0 mg/kg/injection, schedule: Q01DX009 (ip), vehicle: saline with Tween-80
[9] = endpoint: mean survival time, dose: 400.0 mg/kg/injection, schedule: Q04DX003 (ip), vehicle: saline with Tween-80
[10] = endpoint: mean survival time, dose: 100.0 mg/kg/injection, schedule: Q04DX003 (ip), vehicle: saline
[11] = endpoint: mean survival time, dose: 200.0 mg/kg/injection, schedule: Q04DX003 (ip), vehicle: saline
[12] = endpoint: mean survival time, dose: 400.0 mg/kg/injection, schedule: Q04DX003 (ip), vehicle: saline

Measured: T/C

CN(C)C=NC1=NN(C)c2ncnc3c2c1cn3C1OC(CO)C(O)C1O (configuration not stated)
inactive: endpoint: mean survival time, dose: 12.5 mg/kg/injection, schedule: Q01DX009 (ip), vehicle: water 101 % of control | endpoint: mean survival time, dose: 25.0 mg/kg/injection, schedule: Q01DX009 (ip), vehicle: water 95 % of control | endpoint: mean survival time, dose: 50.0 mg/kg/injection, schedule: Q01DX009 (ip), vehicle: water 95 % of control | endpoint: mean survival time, dose: 100.0 mg/kg/injection, schedule: Q01DX009 (ip), vehicle: other 108 % of control | endpoint: mean survival time, dose: 100.0 mg/kg/injection, schedule: Q01DX009 (ip), vehicle: water 103 % of control | endpoint: mean survival time, dose: 200.0 mg/kg/injection, schedule: Q01DX009 (ip), vehicle: other 104 % of control | endpoint: mean survival time, dose: 200.0 mg/kg/injection, schedule: Q01DX009 (ip), vehicle: water 110 % of control | endpoint: mean survival time, dose: 400.0 mg/kg/injection, schedule: Q01DX009 (ip), vehicle: other 115 % of control

Oc1ccc(C(c2ccc(O)cc2)C(Cl)(Cl)Cl)cc1
inactive: [1] 101 % of control | [2] 101 % of control | [3] 93 % of control

COc1ccc(/C=C/c2ccc3ccccc3n2)c(OC)c1
inactive: [4] 96 % of control | [5] 96 % of control | [6] 102 % of control | [7] 96 % of control | [8] 95 % of control | [9] 96 % of control

O=Cc1ccc(O)c2ncccc12
inactive: endpoint: mean survival time, dose: 75.0 mg/kg/injection, schedule: Q01DX001 (ip), vehicle: other 101 % of control | endpoint: mean survival time, dose: 150.0 mg/kg/injection, schedule: Q01DX001 (ip), vehicle: other 95 % of control | endpoint: mean survival time, dose: 300.0 mg/kg/injection, schedule: Q01DX001 (ip), vehicle: other 110 % of control

COc1ccc2ccccc2c1/C=N/N1CCCCC1
inactive: [5] 102 % of control | [7] 102 % of control | [9] 96 % of control

Nc1ccc(N=Nc2ccccc2)c(N)c1
inactive: [10] 97 % of control | [11] 90 % of control | [12] 100 % of control

CCc1c2cc(OC)c(OC)cc2cc2c3cc(OC)c(OC)cc3cc[n+]12 (tested in a mixture with another compound)
inactive: endpoint: mean survival time, dose: 14.6 mg/kg/injection, schedule: Q01DX009 (ip), vehicle: saline with Tween-80 120 % of control | endpoint: mean survival time, dose: 33.0 mg/kg/injection, schedule: Q01DX009 (ip), vehicle: saline with Tween-80 117 % of control | endpoint: mean survival time, dose: 50.0 mg/kg/injection, schedule: Q01DX009 (ip), vehicle: saline 122 % of control | endpoint: mean survival time, dose: 50.0 mg/kg/injection, schedule: Q04DX003 (ip), vehicle: saline 122 % of control | endpoint: mean survival time, dose: 100.0 mg/kg/injection, schedule: Q01DX009 (ip), vehicle: saline 104 % of control | [10] 121 % of control and 123 % of control | [11] 101 % of control | [12] 121 % of control and 98 % of control

COc1ccc(/C=C\[N+](=O)[O-])cc1OC
inactive: [1] 101 % of control | [2] 104 % of control | [3] 101 % of control

CS(=O)(=O)OCCn1c(=O)n(CCOS(C)(=O)=O)c(=O)n(CCOS(C)(=O)=O)c1=O
inactive: [5] 102 % of control | [7] 98 % of control | [9] 93 % of control

Cc1cc(N(CCCOS(C)(=O)=O)CCCOS(C)(=O)=O)ccc1C=Nc1ccc(-c2csc(COc3ccccc3)n2)cc1
inactive: endpoint: mean survival time, dose: 100.0 mg/kg/injection, schedule: Q01DX001 (ip), vehicle: saline with Tween-80 89 % of control | [4] 90 % of control | endpoint: mean survival time, dose: 200.0 mg/kg/injection, schedule: Q01DX001 (ip), vehicle: saline with Tween-80 91 % of control | [6] 86 % of control | endpoint: mean survival time, dose: 400.0 mg/kg/injection, schedule: Q01DX001 (ip), vehicle: saline with Tween-80 88 % of control

NC(=O)N/N=C\c1ccco1
inactive: [5] 102 % of control

BrC1(Br)C2CC/C=C/CCCCC21 (configuration not stated)
inactive: endpoint: mean survival time, dose: 100.0 mg/kg/injection, schedule: Q04DX003 (ip), vehicle: saline sonified 97 % of control | endpoint: mean survival time, dose: 200.0 mg/kg/injection, schedule: Q04DX003 (ip), vehicle: saline sonified 94 % of control | endpoint: mean survival time, dose: 400.0 mg/kg/injection, schedule: Q04DX003 (ip), vehicle: saline sonified 97 % of control

COc1c(CBr)c(CBr)c(OC)c2ccccc12
inactive: [5] 101 % of control | [7] 100 % of control | [9] 101 % of control

O=P(N1CCCCCC1)(N1CCCCCC1)N1CCCCCC1.O=[N+]([O-])O.O=[N+]([O-])O.[O]=[U]=[O]
inactive: endpoint: mean survival time, dose: 6.25 mg/kg/injection, schedule: Q04DX003 (ip), vehicle: Klucel (hydroxypropylcellulose) (HPC) 109 % of control

O=c1oc(-c2ccccc2)nc2cc(Cl)ccc12
inactive: endpoint: mean survival time, dose: 25.0 mg/kg/injection, schedule: Q01DX009 (ip), vehicle: saline with Tween-80 105 % of control | endpoint: mean survival time, dose: 50.0 mg/kg/injection, schedule: Q01DX009 (ip), vehicle: saline with Tween-80 100 % of control | [4] 105 % of control

O=C(N/N=C/c1ccccc1)c1ccccc1O
inactive: endpoint: mean survival time, dose: 100.0 mg/kg/injection, schedule: Q01DX009 (ip), vehicle: Klucel (hydroxypropylcellulose) (HPC) 96 % of control | [1] 100 % of control | endpoint: mean survival time, dose: 200.0 mg/kg/injection, schedule: Q01DX009 (ip), vehicle: Klucel (hydroxypropylcellulose) (HPC) 97 % of control | [2] 94 % of control | endpoint: mean survival time, dose: 400.0 mg/kg/injection, schedule: Q01DX009 (ip), vehicle: Klucel (hydroxypropylcellulose) (HPC) 94 % of control | [3] 94 % of control

C1COC2(CCC3C2C2CCC4(OCCO4)C32)O1 (configuration not stated)
inactive: [5] 103 % of control | [7] 101 % of control | [9] 116 % of control

COP(=O)(OC)OCC1OC(c2n[nH]c(C(N)=O)c2O)C(O)C1O (configuration not stated)
inactive: endpoint: median survival time, dose: 8.13 mg/kg/injection, schedule: Q01DX005 (ip), vehicle: saline 100 % of control | endpoint: median survival time, dose: 16.25 mg/kg/injection, schedule: Q01DX005 (ip), vehicle: saline 102 % of control | endpoint: median survival time, dose: 32.5 mg/kg/injection, schedule: Q01DX005 (ip), vehicle: saline 101 % of control | endpoint: median survival time, dose: 65.0 mg/kg/injection, schedule: Q01DX005 (ip), vehicle: saline 111 % of control | endpoint: median survival time, dose: 130.0 mg/kg/injection, schedule: Q01DX005 (ip), vehicle: saline 111 % of control

CCOC(=O)C(C(C)=O)C(c1ccc(OC)cc1)C(C(C)=O)C(=O)OCC (configuration not stated)
inactive: [4] 94 % of control | [5] 100 % of control | [6] 97 % of control | [7] 99 % of control | [8] 92 % of control | [9] 106 % of control

OC1CCCN(c2c3ccccc3nc3ccccc23)C1 (configuration not stated)
inactive: endpoint: mean survival time, dose: 100.0 mg/kg/injection, schedule: Q04DX002 (ip), vehicle: saline with Tween-80 100 % of control | endpoint: mean survival time, dose: 200.0 mg/kg/injection, schedule: Q04DX002 (ip), vehicle: saline with Tween-80 92 % of control | endpoint: mean survival time, dose: 400.0 mg/kg/injection, schedule: Q04DX002 (ip), vehicle: saline with Tween-80 100 % of control

Cc1cc(-c2ccccc2)c2c(C#N)cn(-c3ccccc3)c2n1
inactive: endpoint: mean survival time, dose: 100.0 mg/kg/injection, schedule: Q01DX001 (ip), vehicle: saline 87 % of control | endpoint: mean survival time, dose: 200.0 mg/kg/injection, schedule: Q01DX001 (ip), vehicle: saline 92 % of control | endpoint: mean survival time, dose: 400.0 mg/kg/injection, schedule: Q01DX001 (ip), vehicle: saline 92 % of control
